Values of other authors as cited in patent US20060246530A1, “Method and reagent for the specifically identifying and quantifying one or more proteins in a sample” (priority 2002, published 2006).

How the values were obtained:
[1] = system: mice; details: Intravenous LD50-rate in mice
[2] = selectivity factor
[3] = stability constant, Gd
[4] = stability constant
[5] = stability constant, Cu
[6] = stability constant, Zn

| Structure (SMILES) | LD50 [1] | Log Ksel [2] | Log KGdL [3] | Log KCal [4] | Log KCuL [5] | Log KZnL [6] |
| --- | --- | --- | --- | --- | --- | --- |
| O=C(O)CN1CCNCCN(CC(=O)O)CCN(CC(=O)O)CC1 [DO3A] | 7 to 9 mmol/kg | 4.13 | 21.0 | 11.74 | 22.87 | 19.26 |
| O=C(O)CN1CCN(CC(=O)O)CCN(CC(=O)O)CCN(CC(=O)O)CC1 [DOTA, 1,4,7,10-tetraazacyclododecane-1,4,7,10-tetraacetic acid] | 11 mmol/kg | 8.3 | 24.6 | 17.23 | 22.63 | 21.05 |
| O=C(O)CN(CCN(CC(=O)O)CC(=O)O)CCN(CC(=O)O)CC(=O)O [DTPA] | 5.6 mmol/kg | 7.04 | 22.46 | 10.75 | 21.38 | 18.29 |
| O=C(O)CN(CCN(CC(=O)O)CC(=O)O)CC(=O)O [EDTA] |  | 4.23 | 17.7 | 10.61 | 18.78 | 16.5 |
| CC(O)CN1CCN(CC(=O)O)CCN(CC(=O)O)CCN(CC(=O)O)CC1 (centres unmarked) [HP-DO3A] | 12 mmol/kg | 6.95 | 23.8 | 14.83 | 22.84 | 19.37 |
